Measured values taken from publication doi:10.1101/2024.08.21.608984v2 (biorxiv, 2025).

How the values were obtained:
GluN1/GluN2A NMDAR = GluN1/GluN2A NMDAR (Homo sapiens, UniProt Q05586+Q12879, Q05586:Y647S); experiment: two-electrode voltage clamp, Xenopus oocytes; assay type: cell-based
GluN1/GluN2B NMDAR = GluN1/GluN2B NMDAR (Homo sapiens, UniProt Q05586+Q13224, Q05586:Y647S); experiment: two-electrode voltage clamp, Xenopus oocytes; assay type: cell-based
GluN1/GluN2B NMDAR, sequence (Q13224 27-1484, other chains not shown): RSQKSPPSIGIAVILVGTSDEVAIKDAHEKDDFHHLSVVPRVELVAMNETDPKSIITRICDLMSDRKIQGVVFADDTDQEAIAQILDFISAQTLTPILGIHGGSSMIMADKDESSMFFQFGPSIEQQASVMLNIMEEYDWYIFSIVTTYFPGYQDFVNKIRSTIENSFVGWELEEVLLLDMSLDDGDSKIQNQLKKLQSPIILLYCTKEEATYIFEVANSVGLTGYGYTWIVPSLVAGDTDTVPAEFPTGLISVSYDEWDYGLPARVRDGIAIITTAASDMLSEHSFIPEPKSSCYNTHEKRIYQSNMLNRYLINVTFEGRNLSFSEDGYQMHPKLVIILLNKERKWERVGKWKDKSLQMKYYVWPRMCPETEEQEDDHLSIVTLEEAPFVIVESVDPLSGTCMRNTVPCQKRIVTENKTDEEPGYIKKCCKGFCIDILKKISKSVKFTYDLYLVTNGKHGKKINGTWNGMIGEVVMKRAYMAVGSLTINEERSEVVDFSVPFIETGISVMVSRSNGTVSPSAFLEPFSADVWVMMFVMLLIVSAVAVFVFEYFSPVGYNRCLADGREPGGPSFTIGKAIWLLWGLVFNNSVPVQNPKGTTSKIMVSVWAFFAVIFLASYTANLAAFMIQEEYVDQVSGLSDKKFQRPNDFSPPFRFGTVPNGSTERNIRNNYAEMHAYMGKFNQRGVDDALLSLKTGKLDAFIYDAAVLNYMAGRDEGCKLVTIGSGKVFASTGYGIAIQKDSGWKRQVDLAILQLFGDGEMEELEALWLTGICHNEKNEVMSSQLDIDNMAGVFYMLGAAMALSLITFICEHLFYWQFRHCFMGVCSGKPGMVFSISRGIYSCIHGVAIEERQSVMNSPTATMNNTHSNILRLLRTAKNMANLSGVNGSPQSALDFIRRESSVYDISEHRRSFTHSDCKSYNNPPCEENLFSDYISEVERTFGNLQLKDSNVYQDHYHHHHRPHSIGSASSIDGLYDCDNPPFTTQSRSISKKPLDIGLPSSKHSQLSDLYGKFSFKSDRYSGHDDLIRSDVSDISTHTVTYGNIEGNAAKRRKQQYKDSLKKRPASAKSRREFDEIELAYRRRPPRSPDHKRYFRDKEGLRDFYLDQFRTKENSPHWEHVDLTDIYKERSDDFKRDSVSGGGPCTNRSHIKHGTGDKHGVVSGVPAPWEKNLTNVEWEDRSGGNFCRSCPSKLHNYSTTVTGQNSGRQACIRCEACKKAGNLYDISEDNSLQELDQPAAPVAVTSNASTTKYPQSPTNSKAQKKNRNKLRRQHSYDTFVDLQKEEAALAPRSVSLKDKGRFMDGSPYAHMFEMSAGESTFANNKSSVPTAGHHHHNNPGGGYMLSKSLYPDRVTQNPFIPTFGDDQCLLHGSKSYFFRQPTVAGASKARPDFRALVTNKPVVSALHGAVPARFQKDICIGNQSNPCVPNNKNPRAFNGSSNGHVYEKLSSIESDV

GluN1/GluN2A NMDAR, sequence (Q12879 23-1464, other chains not shown): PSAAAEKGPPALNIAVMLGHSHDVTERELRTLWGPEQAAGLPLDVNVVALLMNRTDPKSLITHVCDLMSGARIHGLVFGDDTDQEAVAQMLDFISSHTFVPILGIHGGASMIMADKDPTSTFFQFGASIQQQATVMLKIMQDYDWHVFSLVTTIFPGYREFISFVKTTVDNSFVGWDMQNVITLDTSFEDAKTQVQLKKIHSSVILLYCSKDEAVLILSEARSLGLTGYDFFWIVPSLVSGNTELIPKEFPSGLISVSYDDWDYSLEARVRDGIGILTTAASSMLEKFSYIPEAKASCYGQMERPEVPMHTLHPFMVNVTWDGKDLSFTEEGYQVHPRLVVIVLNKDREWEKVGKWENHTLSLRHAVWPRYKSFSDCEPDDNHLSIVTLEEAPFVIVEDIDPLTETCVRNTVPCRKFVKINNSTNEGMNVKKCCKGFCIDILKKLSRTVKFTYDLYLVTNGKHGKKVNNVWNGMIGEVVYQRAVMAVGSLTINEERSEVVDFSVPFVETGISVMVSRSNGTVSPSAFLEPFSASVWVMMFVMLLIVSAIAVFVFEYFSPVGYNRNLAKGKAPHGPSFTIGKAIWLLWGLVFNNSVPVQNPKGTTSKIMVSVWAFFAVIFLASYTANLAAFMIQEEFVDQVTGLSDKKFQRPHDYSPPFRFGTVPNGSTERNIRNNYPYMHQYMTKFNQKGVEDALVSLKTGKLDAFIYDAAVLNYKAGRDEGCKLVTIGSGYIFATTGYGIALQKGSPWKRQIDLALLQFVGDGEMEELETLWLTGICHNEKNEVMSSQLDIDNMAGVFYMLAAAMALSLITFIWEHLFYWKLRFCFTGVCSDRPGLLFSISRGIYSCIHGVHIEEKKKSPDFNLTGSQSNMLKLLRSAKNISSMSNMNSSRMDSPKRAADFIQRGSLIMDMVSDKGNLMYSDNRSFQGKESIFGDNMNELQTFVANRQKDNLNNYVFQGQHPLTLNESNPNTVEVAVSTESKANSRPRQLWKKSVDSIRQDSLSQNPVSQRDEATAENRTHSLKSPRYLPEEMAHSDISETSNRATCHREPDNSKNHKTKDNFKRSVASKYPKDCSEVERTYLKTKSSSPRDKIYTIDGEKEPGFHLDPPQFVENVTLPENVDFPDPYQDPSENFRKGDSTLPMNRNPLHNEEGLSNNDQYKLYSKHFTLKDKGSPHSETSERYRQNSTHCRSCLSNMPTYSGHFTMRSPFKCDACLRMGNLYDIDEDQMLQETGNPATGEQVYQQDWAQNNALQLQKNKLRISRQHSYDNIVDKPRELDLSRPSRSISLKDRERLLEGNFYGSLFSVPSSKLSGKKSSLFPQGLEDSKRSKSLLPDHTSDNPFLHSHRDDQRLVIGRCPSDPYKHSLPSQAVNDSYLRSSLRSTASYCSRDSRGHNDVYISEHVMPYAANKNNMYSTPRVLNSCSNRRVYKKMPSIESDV

NCC(=O)O [glycine]
EC50 (GluN1/GluN2A NMDAR): 36 nM | EC50 (GluN1/GluN2B NMDAR): 17 nM
